# Conditions: buffer; pH 7.4; 200.0 µM
row,SMILES,solubility kinetic [µg/mL]
1,Cc1ccc(NC2SC(=O)N(Cc3cccc(C(=O)O)c3)C2=O)c(C)c1 (stereo not given),53.1
2,CC1=C(C(=O)OC(C)C)C(c2ccc(O)cc2)NC(=O)N1 (stereo not given),> 43.5
3,O=C(NNC(=S)Nc1ccc(F)c(Cl)c1)C1CC1,> 43.2
4,CSc1nc(=S)n(-c2cc(C)ccc2C)c(C)c1C(C)=O,> 47.8
5,CC1Cc2cc(/C=C3/SC(=S)NC3=O)ccc2O1 (stereo not given),9.3
6,CCOc1ccccc1N1CCN(C(=O)NC2CCCCC2)CC1,> 49.7
7,CC(c1nccs1)N(C)c1nc2nonc2nc1NC1CC1 (stereo not given),9.6
8,O=C1NC2(CCCCC2)C(=O)N1Cc1cc(=O)n2ccsc2n1,44.7
9,O=C(O)CCNC(=O)/C(=C\c1ccco1)NC(=O)c1ccco1,> 47.7
10,Cn1nccc1C(=O)N1CCN(c2ccccc2Cl)CC1,> 45.7
11,Oc1c(CN2CCCCC2)cc(Br)c2cccnc12,33.6
12,Cc1ccc(CC2SC(N=C(N)N)=NC2=O)cc1 (stereo not given),> 39.3
13,O=C(O)C1C2C=CC(C2)C1C(=O)Nc1cccc(C(F)(F)F)c1 (stereo not given),10.3
14,O=C(Cc1ccccc1Cl)NCc1cccnc1,> 39.1
15,COc1cccc(NC(=S)NCc2ccc(F)cc2)c1,37.9
16,CC(=O)Nc1ccc(Nc2cc(C)c3ccccc3n2)cc1,41.6
17,Cc1cc(C)cc(NC(=O)CCn2ccnc2)c1,> 36.5
18,COc1cccc(OCCNC(=O)c2ccc(C)cc2)c1,41.9
19,O=C(CN1CCN(Cc2ccccc2)CC1)Nc1ccccc1,> 46.4
20,O=C(c1cc(Cl)ccc1O)N1CCN(S(=O)(=O)Cc2ccccc2)CC1,> 59.2
21,CC(C)(C)NC(=O)C(=O)NC(=O)c1c(F)cccc1Cl,36.2
22,CCCC(=O)N(Cc1cc(=O)[nH]c2ccccc12)c1ccccc1C,41.1
23,O=C(CSc1nc2ccccc2s1)c1ccc(O)cc1O,3.3
24,Cc1ccc(SCC(=O)N(C)C2CCS(=O)(=O)C2)c(C)c1 (stereo not given),> 49.1

row,SMILES,solubility kinetic [µg/mL]
1,CC(=O)NC(NC(=S)Nc1ccc(S(N)(=O)=O)cc1)C(Cl)(Cl)Cl (stereo not given),62.6
2,O=C(Nc1ccccn1)c1ccc2ccccc2c1O,31.4
3,COc1cc2c(cc1OC)-c1cc(Nc3ccccc3C)nc(=O)n1CC2,49.3
4,COc1cc(C(=O)OC(C)C(=O)N2CCCC2)cc2c1OCCO2 (stereo not given),> 50.3
5,O=C(CCNC(=O)c1ccc(Cl)cc1)Nc1ncccc1O,45
6,O=C(COC(=O)c1cc(-c2ccccc2)nc2ccccc12)NC1CC1,6.6
7,CCOC(=O)c1cc(C(=O)NC(C)c2ccccc2)c(=O)[nH]c1C (stereo not given),1.6
8,CC1CC2(C)CC(C)C1(COC(=O)Nc1ccccc1)CO2 (stereo not given),44.6
9,COc1ccc(C(=O)Nc2nc3ccccc3s2)c(OC)c1,1
10,CC(C)Cc1cc(C(=O)Nc2ccccc2)c2ccccc2n1,3.9
11,Cc1ccc(N2CC(C(=O)N3CCOCC3)CC2=O)cc1Cl (stereo not given),> 48.4
12,CSc1ccccc1NC(=O)CN(C)C(C)C(=O)NCc1ccc2c(c1)OCO2 (stereo not given),16
13,CC1(C)CC2CC(C)(CN2/C=C2/CCCCC2=O)C1 (stereo not given),22.6
14,O=[N+]([O-])c1cc(S(=O)(=O)NCCN2CCOCC2)ccc1Cl,> 52.5
15,CCN(CC)C(=O)c1sc(NC(=O)C(C)C)c(C#N)c1C,> 46.1
16,CCCOCCc1nnc(N)s1,> 28.1
17,Cc1cnc(C(=O)OCC(=O)Nc2ccc(Cl)cn2)cn1,> 46
18,COc1ccc(C2SCC(=O)N2c2ccccc2)cc1 (stereo not given),38.6
19,CC(C)c1ccc(/C=C2\NC(=O)NC2=O)cc1,13.9
20,CCN(CC)S(=O)(=O)c1ccc(N2CCOCC2)c(NC(=O)c2cc(Cl)c3c(c2)OCO3)c1,5.2
21,Cc1ccc(CSc2nc(N)cc(=O)[nH]2)cc1,13.1
22,N#C/C(=C\c1ccc(F)cc1F)S(=O)(=O)c1ccccn1,42.4
23,COc1ccc(C(=O)OCC(=O)Nc2ccc(Cl)cn2)cc1,1.2
24,O=C(NCc1ccccc1)N1CCCC1,> 30.6

row,SMILES,solubility kinetic [µg/mL]
1,COc1ccc(C(=O)COC(=O)c2ccc(N(C)C)cc2)cc1,< 0.7
2,CCOc1ccc(N2CC(C(=O)N3CCCC3)CC2=O)cc1 (stereo not given),> 45.4
3,Cc1ccc(C2(C)NC(=O)N(CC(=O)N3CC(=O)Nc4ccccc43)C2=O)cc1 (stereo not given),0.4
4,S=C(c1ccc(-c2ccc(Cl)cc2Cl)o1)N1CCCC1,< 0.7
5,O=C(NC1CCCCC1)c1ccc2c(c1)OCO2,> 37.1
6,O=C(COc1ccc(C(=O)c2ccccc2)cc1)Nc1ncccc1O,24.9
7,CC(=Nc1ccccc1N)c1c(O)n(C)c(=O)n(C)c1=O,3.6
8,O=C(NC1CC1)c1ccc(N2CCCCC2)c([N+](=O)[O-])c1,> 43.4
9,Cc1ccc(NC(=S)N2CCN(c3ccccn3)CC2)cc1C,1.1
10,COc1ccc(S(=O)(=O)N2CCSC2C)cc1C (stereo not given),34.9
11,Cc1ccc(Cl)cc1NC(=O)CON=C(N)c1ccccc1,32.4
12,CCCCNc1c([N+](=O)[O-])ncn1C,> 29.7
13,CCCCNC(=O)COC(=O)c1ccc(N(C)C)cc1,> 41.8
14,Cc1cc(C)c(NC(=O)COC(=O)C2CCCO2)c(C)c1 (stereo not given),> 43.7
15,CCOC(=O)NC(=O)CSc1ccc(C)cc1C,> 40.1
16,O=C(NCCN1CCOCC1)c1ccc(Cl)c([N+](=O)[O-])c1,41.4
17,CN(CC(=O)Nc1ccc(Cl)cc1F)C1=NS(=O)(=O)c2ccccc21,7.8
18,CC(C)S(=O)(=O)C/C(N)=N/OS(=O)(=O)c1ccc(Cl)cc1,42.5
19,CC(C)(C)c1ccc(C(=O)NCCCNC(=O)c2ccccn2)cc1,> 50.9
20,COc1ccc(/C=C/C(=O)NCCCNC(=O)/C=C/c2ccc(OC)c(OC)c2)cc1OC,60
21,O=S(=O)(Nc1ccccc1N1CCCCC1)c1cccs1,1.2
22,Nc1nc(F)cc(N2CCCCCC2)n1,> 31.5
23,Nc1ccccc1SCC(=O)Nc1cccc2ccccc12,32.6
24,Cc1ccc(NC(=O)C2COc3ccccc3O2)cc1C (stereo not given),14.5

row,SMILES,solubility kinetic [µg/mL]
1,CNP(=O)(Oc1ccccc1)OC12CC3CC(CC(C3)C1)C2 (stereo not given),> 48.2
2,COc1ccc(S(=O)(=O)N[C@@H](CSCc2ccccc2)C(=O)O)cc1,> 57.2
3,COc1ccc(CNC(=O)Cc2cccs2)cc1OC,42.6
4,NC(=O)c1cc2c(s1)-c1cc(Cl)ccc1SC2,0.8
5,O=C(CSc1ccccc1Cl)N1CCOCC1,> 40.8
6,COc1ccc2nc(C)cc(Nc3ccc(C)cc3)c2c1.Cl,30.5
7,COc1cccc(C2=NOC(C(=O)Nc3cc(C)on3)C2)c1OC (stereo not given),46.5
8,Cc1ccc(-c2[nH]c3ccccc3c2SCCN)cc1,> 42.4
9,CCCCn1c(O)c(C(C)=NCCc2c[nH]c3ccccc23)c(=O)[nH]c1=O,0.4
10,CC1CCN(CCn2c(=S)[nH]c3cc4c(cc3c2=O)OCO4)CC1,29.4
11,CCOC(=O)N1CCN(C(=O)COC(=O)c2ccc(Cl)nc2)CC1,> 53.4
12,Nc1nc(NCCO)nc(NCc2ccccc2)c1[N+](=O)[O-],15.6
13,CN(c1ccc([N+](=O)[O-])cc1C(N)=O)C1CCCCC1,38.3
14,S=C(NCCNC(=S)Nc1ccccc1)Nc1ccccc1,9.4
15,CC(=O)Nc1ccc(NC(=O)CSc2ccc([N+](=O)[O-])cn2)cc1,3
16,COC(=O)c1ccc(CSC(=N)N)o1,27.6
17,COc1cccc(NC(=O)C2(S(=O)(=O)c3ccc(Cl)cc3)CC2)c1,33.1
18,COc1ccc(OC)c(Nc2nc(N)nc(CCl)n2)c1,22.4
19,COc1ccc2c(c1OC)C(=O)OC2Nc1nc2ccccc2s1 (stereo not given),50.4
20,CNc1ccc([N+](=O)[O-])cc1-c1nc2ccccc2[nH]c1=O,0.2
21,O=S(=O)(Nc1ccc(O)c2ccccc12)c1cccs1,24.9
22,O=C(NCCO)C1COc2ccccc2O1 (stereo not given),> 33.5
23,Cc1ccc2c(c1)C1CN(C)CCC1N2S(=O)(=O)c1ccccc1F (stereo not given),> 54.1
24,Cc1ccc(CC2C(=O)N(c3ccc(F)cc3)C(=O)C2C)cc1 (stereo not given),3.3

row,SMILES,solubility kinetic [µg/mL]
1,CC(=O)Nc1nc(C)c(Oc2ccc(Cl)cc2)c(=O)[nH]1,43
2,O=C(CNC(=O)c1ccccc1F)N/N=C/c1ccco1,> 43.4
3,CNC(=S)N1CCn2cccc2C1c1cc(OC)c(OC)c(OC)c1 (stereo not given),> 54.2
4,CC(=O)N1N=C2C3CCN(CC3)C2C1c1ccc(F)cc1 (stereo not given),> 43.1
5,NC(=S)Nc1ccc(F)cc1F,> 28.2
6,CCc1ccccc1NC(=O)C1CCN(c2cnccn2)CC1,> 46.6
7,O=C(O)CSc1nc(-c2ccccc2)nc2c1CCCC2,> 45.1
8,O=C(CCCc1ccccc1)NCc1ccc(Cl)cc1,27.7
9,O=C(CCN1CCN(c2ccccc2F)CC1)Nc1ccccc1Cl,> 54.3
10,CC(C)(C)C(=O)NC(=S)Nc1cccc(C(=O)O)c1,> 42.1
11,COc1ccc(OCCC(=O)N2CCN(C)CC2)cc1.Cl,> 47.2
12,CCc1ccc(Oc2ncnc(N)c2[N+](=O)[O-])cc1,5
13,O=C(O)/C=C\C(=O)O.c1ccc(Sc2ccccc2CN2CCCC2)cc1,> 57.8
14,Cc1ccc(-c2csc3nc[nH]c(=O)c23)cc1,19.5
15,CN(CCO)c1cc(N(C)CCO)c([N+](=O)[O-])cc1[N+](=O)[O-],42.1
16,Cc1cc(C)c(OCCOCCN2CCCC2)c(C)c1,30.2
17,O=C(O)C1CC=CCC1C(=O)NCc1ccc(Cl)c(Cl)c1 (stereo not given),> 49.2
18,Cc1ccc(S(=O)(=O)NC(=NC(C)C)c2ccccc2)cc1,> 47.5
19,O=C(CSc1ccccc1)Nc1ccc2c(c1)OCO2,41.8
20,Clc1nc(CN2CCOCC2)nc2sc3c(c12)CCC3,44.5
21,CC(C)(C)NS(=O)(=O)c1ccc(NC(=O)C2CCCO2)cc1 (stereo not given),43.7
22,CCN(CC)Cc1c(O)ccc2c1O/C(=C\C=C\c1ccccc1)C2=O,42.2
23,CC1CCCCC1NC(=O)COC(=O)c1ccc([N+](=O)[O-])o1 (stereo not given),> 46.5
24,Cc1cc(C)c(S(=O)(=O)NCC(=O)NCc2ccccn2)c(C)c1,> 52.1
